Laboratory results from patent publication US20120121691A1, “Method for Increasing the Production of a Specific ACYL-Chain Dihydroceramide(s) for Improving the Effectiveness of Cancer Treatments” (priority 2010, published 2012).

What was measured:
[1] = system: intracellular sphingolipids, COG-LL-332; test: LC/MS/MS analysis of intracellular sphingolipids, COG-LL-332; format: cell-based, human; details: for increase in corresponding dihydroceramide over sphinganine+GT-11 alone: COG-LL-332, fatty acid with sphinganine+GT-11, six hours, P<0.05
Procedure: LC/MS/MS analysis of intracellular sphingolipids. Sphingolipids were separated using an Agilent 1200 HPLC (LC) and determined by ESI/MS/MS performed on a AB SCIEX 4000 QTRAP Hybrid Triple Quadrupole/Linear Ion Trap mass spectrometer (MS), operating in a multiple reaction monitoring positive ionization mode as described previously with moderate modifications (25). Briefly, 50 μL of a solution (1 μM) of internal sphingolipid standards (including -sphingosine, -sphinganine, -sphingosine-1-phosphate, and -ceramide) was added to each cell pellet sample. Lipids of each sample were extracted twice with 2 mL of the ethyl acetate/isopropyl alcohol/water (60:28:12; v:v) solvent system. Supernatants were transferred to glass tubes (Kimble Chase) and evaporated under air (10 PSI) at 40° C. After reconstitution in methanol (4 mL), 1 ml of each sample was separated for the determination of lipid phosphate. Remaining sample (3 mL) was dried and used for sphingolipid quantification. For ESI/MS/MS, the dried lipid sample was dissolved in mobile phase A. Samples were injected (10 μL) and separated on a Spectra C8SR, 150×3.0 mm, 3-μm particle size column using gradient-elution (mobile phase A/B, prepared as previously described).
Data acquisition, peak integration and analyte quantitation were performed using ABI/SCIEX Analyst 1.4.2 Software. Sphingolipid data were normalized to lipid phosphate as previously described (26). Briefly, samples were dried under air (10 PSI) and lipids were extracted using the method of Bligh and Dyer (27). Of importance for phosphate assay, only Kimble Chase disposable borosilicate tubes were used for minimal sample contamination. Organic phase was transferred to glass tubes and a known volume was separated to a new tube and dried at 80° C. Phosphate standards and dried samples were then heated with ashing buffer (water:10 N:70% [40:9:1]) at 160° C. overnight. Samples were then incubated with ammonium molybdate and ascorbic acid as previously described, and absorbance ([…]) was read using a SpectraMax.
Cells were treated for 48 hours with Sa (0-4 μM)+/−GT-11 (0.5 μM) with or without C18:0-, C22:0- or C22:1-fatty acids. Cytotoxicity was measured using DIMSCAN, and data was normalized to control and plotted as survival fraction (y-axis). Gray and white symbols represent long and very long chain fatty acids, respectively. Gray lines encompass data used for sphingolipid correlation analysis with cytotoxicity. Datum point, mean; error bar, SEM. […]
Cytotoxicity was measured using DIMSCAN, and data was normalized to control and plotted as survival fraction (y-axis).

COG-LL-317 = test: DIMSCAN cytotoxicity assay, COG-LL-317; format: cell-based; details: COG-LL-317, sphinganine 1 μM, GT-11 0.5 μM, 48 hours
From the text: Cell culture. The pre-T acute lymphoblastic leukemia cell lines MOLT-4 and CCRF-CEM, small cell lung cancer cell line NCI-H146, non-small cell lung cancer cell line NCI-H1792, colon cancer cell lines LoVo and HT-29, and breast cancer cell line MCF-7, were purchased from American Type Culture Collection, Manassas, Va., and grown at 20%/5% and 5%/5%, respectively. COG-LL-317 and COG-LL-332 pre-T acute lymphoblastic leukemia cell lines were obtained from the TTUHSC Cancer Center Cell Repository and grown at 5%/5%. Cell line identities were verified by short tandem repeat analysis and mycoplasma testing was performed. Cell lines were maintained in RPMI-1640 medium supplemented with 10% fetal bovine serum (FBS, Invitrogen) in humidified, 37° C. incubators. For all experiments, ALL cell lines were seeded at […] in RPMI-1640 medium supplemented with 15% fetal bovine serum. Solid tumor cell lines were plated at 5×cells/mL in RPMI-1640 medium supplemented with 10% fetal bovine serum.
Cytotoxicity Assay. Cytoxicity is determined using the DIMSCAN assay system (R. Proffitt et al., Cytometry 24, 204-213 (1996); T. Frgala et al., Proc. AACR, 36, 303 (1995). The system employs digital imaging microscopy to quantify viable cells, which selectively accumulate fluorescein diacetate to become brightly fluorescent. The system is capable of measuring cytotoxicity over a 4-5 log dynamic range by quenching the residual fluorescence of dead and dying cells with eosin Y and quantifying the total fluorescence of viable cells using digital thresholding. Measured fluorescence is directly proportionate to the number of viable cells. A comparison of the total fluorescence of a drug-treated cell population to the fluorescence of a similar number of untreated cells yields a survival fraction. […]
The addition of C22:0-fatty acid, but not C18:0 or C22:1 fatty acids, increased cytotoxicity (FIGS. 7A-7F). […] Cytotoxicity was measured using DIMSCAN, and data was normalized to control and plotted as survival fraction (y-axis). […]

Row | Compound | increase in corresponding dihydroceramide over sphinganine+GT-11 alone [1] | effect of fatty acid co-treatment on cytotoxicity of sphinganine with GT-11 (COG-LL-317) | increase of C22:0-dihydroceramide compared to 4-HPR alone ([1]; COG-LL-332, fatty acid with 4-HPR 1.1 μM, six hours, P<0.001) | increase of C22:0-dihydroceramide over sphinganine+GT-11 alone ([1]; COG-LL-332, fatty acid with sphinganine 1 μM plus GT-11 0.5 μM, six hours, P<0.001)
1 | CCCCCCCC/C=C\CCCCCCCCCCCC(=O)O [C22:1-fatty acid] | significant increases | not |  | 
2 | CCCCCCCCCCCCCCCCCCCCCC(=O)O [C22:0-fatty acid] | significant increases | increased | 8 fold | 57 fold
